Tests used:
Assay in all cases: relative viability (nuclei count vs DMSO), 5 days (fraction); higher = more cells survive
NCI-H596 = tested on: NCI-H596
Method in brief: (§1)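 Medians of duplicate plates are given as relative viability. That measure is the nuclei count in treated wells divided by the count in vehicle wells. Counts were taken on 4× images of lung cancer cell lines in 1536-well plates, 5 days after pin-tool dosing the day after seeding with one drug alone or a fixed anchor-drug dose plus five library-drug doses (not always all listed) in √10 steps.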

NCI-H1623 = tested on: NCI-H1623
Method in brief: as §1

NCI-H1355 = tested on: NCI-H1355
Method in brief: as §1

NCI-H322M = tested on: NCI-H322M
Method in brief: as §1

NCI-H23 = tested on: NCI-H23
Method in brief: as §1

LCLC-97TM1 = tested on: LCLC-97TM1
Method in brief: as §1

UMC-11 = tested on: UMC-11
Method in brief: as §1

NCI-H1993 = tested on: NCI-H1993
Method in brief: as §1

SMILES | relative viability (NCI-H596; first compound 0.08 µM) | relative viability (NCI-H596; first compound 0.253 µM) | relative viability (NCI-H596; first compound 0.8 µM) | relative viability (NCI-H596; first compound 2.53 µM) | relative viability (NCI-H596; first compound 8 µM) | relative viability (NCI-H1623; first compound 0.08 µM) | relative viability (NCI-H1623; first compound 0.253 µM) | relative viability (NCI-H1623; first compound 0.8 µM) | relative viability (NCI-H1623; first compound 2.53 µM) | relative viability (NCI-H1623; first compound 8 µM) | relative viability (NCI-H1355; first compound 0.08 µM) | relative viability (NCI-H1355; first compound 0.253 µM) | relative viability (NCI-H1355; first compound 0.8 µM) | relative viability (NCI-H1355; first compound 2.53 µM) | relative viability (NCI-H1355; first compound 8 µM) | relative viability (NCI-H322M; first compound 0.08 µM) | relative viability (NCI-H322M; first compound 0.253 µM) | relative viability (NCI-H322M; first compound 0.8 µM) | relative viability (NCI-H322M; first compound 2.53 µM) | relative viability (NCI-H322M; first compound 8 µM) | relative viability (NCI-H23; first compound 0.08 µM) | relative viability (NCI-H23; first compound 0.253 µM) | relative viability (NCI-H23; first compound 0.8 µM) | relative viability (NCI-H23; first compound 2.53 µM) | relative viability (NCI-H23; first compound 8 µM) | relative viability (LCLC-97TM1; first compound 0.08 µM) | relative viability (LCLC-97TM1; first compound 0.253 µM) | relative viability (LCLC-97TM1; first compound 0.8 µM) | relative viability (LCLC-97TM1; first compound 2.53 µM) | relative viability (LCLC-97TM1; first compound 8 µM) | relative viability (UMC-11; first compound 0.08 µM) | relative viability (UMC-11; first compound 0.253 µM) | relative viability (UMC-11; first compound 0.8 µM) | relative viability (UMC-11; first compound 2.53 µM) | relative viability (UMC-11; first compound 8 µM) | relative viability (NCI-H1993; first compound 0.08 µM) | relative viability (NCI-H1993; first compound 0.253 µM) | relative viability (NCI-H1993; first compound 0.8 µM) | relative viability (NCI-H1993; first compound 2.53 µM) | relative viability (NCI-H1993; first compound 8 µM)
O=c1cc(-c2cccc3c2Sc2ccccc2S3)oc(N2CCOCC2)c1 + CCNC(=O)c1noc(-c2cc(C(C)C)c(O)cc2O)c1-c1ccc(CN2CCOCC2)cc1 [Luminespib] (partner 0.01 µM) | 1.06 | 0.957 | 0.763 | 0.891 | 0.852 | 0.615 | 0.589 | 0.472 | 0.411 | 0.495 | 0.847 | 0.641 | 0.722 | 0.73 | 0.605 | 0.711 | 0.824 | 0.823 | 0.769 | 0.849 | 0.195 | 0.228 | 0.188 | 0.219 | 0.209 | 0.815 | 0.733 | 0.807 | 0.71 | 0.708 | 1.07 | 1.22 | 1.19 | 1.25 | 1.34 | 0.628 | 0.934 | 0.778 | 0.724 | 0.9
COc1nc(C)cnc1NS(=O)(=O)c1cccnc1-c1ccc(-c2nnco2)cc1 [Zibotentan] + CCNC(=O)c1noc(-c2cc(C(C)C)c(O)cc2O)c1-c1ccc(CN2CCOCC2)cc1 [Luminespib] (partner 0.01 µM) | 1.02 | 0.939 | 1.16 | 1.03 | – | 0.427 | – | 0.445 | 0.486 | – | 0.738 | 0.719 | 0.773 | 0.75 | – | 0.876 | 0.474 | 0.897 | 0.918 | – | 0.199 | – | 0.231 | 0.186 | – | 0.948 | 0.759 | 0.927 | 0.692 | – | 1.1 | 0.974 | 0.978 | 0.997 | – | 0.667 | 0.978 | 0.839 | 0.949 | –
COc1nc(C)cnc1NS(=O)(=O)c1cccnc1-c1ccc(-c2nnco2)cc1 [Zibotentan] + Cc1nc(Nc2ncc(C(=O)Nc3c(C)cccc3Cl)s2)cc(N2CCN(CCO)CC2)n1 [Dasatinib] (partner 0.075 µM) | 0.68 | 0.549 | 0.538 | 0.561 | – | 0.533 | – | 0.567 | 0.507 | – | 0.691 | 0.743 | 0.718 | 0.832 | – | 0.235 | 0.245 | 0.27 | 0.269 | – | 0.859 | 0.711 | 0.553 | 0.928 | – | 0.823 | 0.841 | 0.882 | 0.861 | – | 0.394 | 0.436 | 0.475 | 0.469 | – | 0.565 | 0.63 | 0.481 | 0.741 | –

Source: the supplement of paper PMC10307832
